Reference: ChEMBL document CHEMBL1201862, “PubChem BioAssay data set” (2004)
Active and inactive are the calls of the source.

Experiments:
[1] = PAX8-dependent cell viability loss – plate reader, dry powder, dose response (AID 743049); type: functional, cell-based
[2] = molecular target: T1, Protein RecA (Mycobacterium tuberculosis, UniProt P9WHJ3); assay: Fluorescence Cell-Free Homogeneous Dose Retest to Identify Inhibitors of RecA-Intein Splicing Activity. [Related pubchem assays (depositor defined):AID2097, AID2223, AID489010, AID492950]; type: functional
T1 sequence (P9WHJ3 whole entry): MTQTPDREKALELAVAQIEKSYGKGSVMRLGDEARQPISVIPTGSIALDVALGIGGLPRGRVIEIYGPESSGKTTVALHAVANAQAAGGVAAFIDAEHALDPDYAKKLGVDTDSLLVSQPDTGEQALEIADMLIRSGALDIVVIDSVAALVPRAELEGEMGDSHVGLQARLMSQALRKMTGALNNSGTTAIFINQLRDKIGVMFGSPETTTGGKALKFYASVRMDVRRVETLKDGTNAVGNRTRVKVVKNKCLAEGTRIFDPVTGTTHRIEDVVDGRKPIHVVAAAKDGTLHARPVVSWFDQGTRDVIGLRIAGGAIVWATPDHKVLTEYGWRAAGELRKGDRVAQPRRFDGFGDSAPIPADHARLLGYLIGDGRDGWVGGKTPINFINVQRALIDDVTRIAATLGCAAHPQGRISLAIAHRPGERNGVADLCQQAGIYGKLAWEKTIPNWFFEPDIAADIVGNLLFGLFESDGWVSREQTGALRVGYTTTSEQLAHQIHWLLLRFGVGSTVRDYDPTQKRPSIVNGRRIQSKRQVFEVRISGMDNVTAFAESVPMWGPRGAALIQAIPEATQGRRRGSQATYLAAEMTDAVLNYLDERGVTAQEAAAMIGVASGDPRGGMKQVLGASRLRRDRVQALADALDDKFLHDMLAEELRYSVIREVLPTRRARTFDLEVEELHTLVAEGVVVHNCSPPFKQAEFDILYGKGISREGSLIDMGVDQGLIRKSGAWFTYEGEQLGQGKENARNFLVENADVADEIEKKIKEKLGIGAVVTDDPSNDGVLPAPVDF

[3] = molecular target: T2, Microphthalmia-associated transcription factor (Homo sapiens, UniProt O75030); assay: reducers of TRPM1 reporter luminescence, concentration series – cell-based, SK-MEL-5, cherry-picked, set 3, MITF inhibitor project, dose response (AID 493073); type: functional;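 note: SK-MEL-5 melanoma cells with luciferase driven by the MITF target TRPM1 promoter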
T2 sequence (O75030 whole entry): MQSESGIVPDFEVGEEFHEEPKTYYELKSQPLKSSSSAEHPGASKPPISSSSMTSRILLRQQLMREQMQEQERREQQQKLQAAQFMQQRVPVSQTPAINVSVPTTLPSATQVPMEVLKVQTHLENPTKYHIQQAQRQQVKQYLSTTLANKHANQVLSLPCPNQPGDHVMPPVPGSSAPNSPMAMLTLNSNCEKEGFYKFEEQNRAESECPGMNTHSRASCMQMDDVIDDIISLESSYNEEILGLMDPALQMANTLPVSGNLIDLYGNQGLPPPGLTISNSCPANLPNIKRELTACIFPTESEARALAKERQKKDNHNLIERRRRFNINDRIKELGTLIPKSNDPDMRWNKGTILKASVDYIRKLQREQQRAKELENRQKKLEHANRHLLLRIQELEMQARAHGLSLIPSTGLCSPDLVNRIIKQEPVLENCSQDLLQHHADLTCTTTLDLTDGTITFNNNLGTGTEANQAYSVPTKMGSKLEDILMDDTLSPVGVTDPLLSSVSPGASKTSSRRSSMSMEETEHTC

[4] = IGROV1 cell killing – plate reader, dry powder samples, PAX8 inhibitor project, dose response (AID 743043); type: functional, cell-based; conditions: IGROV-1
[5] = molecular target: T3, Replicative DNA helicase DnaB (Mycobacterium tuberculosis, UniProt P9WMR3); assay: DnaB intein splicing inhibitors, dose response, biochemical, cell-free fluorescence (AID 449749); type: functional
T3 sequence (P9WMR3 whole entry): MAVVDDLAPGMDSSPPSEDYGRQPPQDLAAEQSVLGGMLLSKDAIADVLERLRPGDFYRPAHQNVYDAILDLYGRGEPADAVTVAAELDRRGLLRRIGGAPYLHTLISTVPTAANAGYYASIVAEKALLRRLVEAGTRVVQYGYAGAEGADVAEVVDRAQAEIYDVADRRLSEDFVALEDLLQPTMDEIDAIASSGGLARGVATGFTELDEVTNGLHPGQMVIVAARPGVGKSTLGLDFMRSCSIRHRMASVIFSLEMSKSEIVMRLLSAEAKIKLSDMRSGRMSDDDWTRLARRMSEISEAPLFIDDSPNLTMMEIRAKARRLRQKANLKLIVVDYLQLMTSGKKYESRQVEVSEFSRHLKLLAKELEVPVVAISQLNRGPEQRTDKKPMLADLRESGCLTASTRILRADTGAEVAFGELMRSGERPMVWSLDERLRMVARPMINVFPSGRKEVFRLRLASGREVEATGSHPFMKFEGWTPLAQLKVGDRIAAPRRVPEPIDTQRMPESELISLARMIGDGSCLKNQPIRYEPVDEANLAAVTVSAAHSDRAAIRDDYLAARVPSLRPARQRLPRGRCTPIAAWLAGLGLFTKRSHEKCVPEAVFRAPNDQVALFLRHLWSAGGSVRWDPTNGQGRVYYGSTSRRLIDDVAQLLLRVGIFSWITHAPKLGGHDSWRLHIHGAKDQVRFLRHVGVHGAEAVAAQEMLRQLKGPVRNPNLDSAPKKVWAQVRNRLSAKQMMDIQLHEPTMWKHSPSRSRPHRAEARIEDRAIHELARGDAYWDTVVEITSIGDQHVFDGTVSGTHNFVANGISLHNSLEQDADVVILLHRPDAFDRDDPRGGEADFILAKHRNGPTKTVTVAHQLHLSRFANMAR

[6] = A2780 cell killing – plate reader, dry powder samples, cytotoxicity control, dose response (AID 743046); type: functional, cell-based
[7] = OV-90 cell viability loss – plate reader, dry powder, SA8, PAX8 inhibitor project, dose response (AID 743149); type: functional, cell-based
[8] = COV362 cell viability loss – plate reader, dry powder, SA12, cytotoxicity control for PAX8 inhibitor project, dose response (AID 743144); type: functional, cell-based
[9] = test system: A-375; assay: MITF: Counter assay: A375 proliferation Measured in Cell-Based System Using Plate Reader - 2084-03_Inhibitor_Dose_DryPowder_Activity. [Related pubchem assays (depositor defined):AID488944]; type: functional; conditions: Homo sapiens
[10] = Luminescence Cell-Based Dose Response HTS to Identify Activators of Luciferase Translation or Activity in H4 […] Cells. [Related pubchem assays: 1829 (Project Summary), 1814 (Primary HTS)]; type: functional
[11] = inhibitors acting on PAX2 in cells – cell-based, plate reader, dry powder samples, selectivity assay for PAX8 inhibitor project, dose response (AID 743048); type: functional;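 note: HEK293 cells carrying a WT1 promoter luciferase reporter driven by expressed Pax2; potency is for inhibition of Pax2 driven reporter signal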
[12] = test system: H4; assay: Luminescence Cell-Based Dose Response HTS to Identify Activators of 5'UTR Stem-Loop Driven Prion Protein mRNA Translation in H4 Neuroglioblastoma Cells. [Related pubchem assays: 1829 (Project Summary), 1814 (Primary HTS)]; type: functional; conditions: Homo sapiens
[13] = HPDE-C7 pancreatic duct cell viability loss – fluorescence, HTS (AID 430); type: functional, cell-based; conditions: Homo sapiens
[14] = PAX5 cellular inhibition readout – cell-based, plate reader, dry powder samples, selectivity assay for PAX8 inhibitor project, dose response (AID 743047); type: functional;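 note: HEK293 cells carrying a Pax5 driven CD19 promoter luciferase reporter; potency of inhibitors that lower reporter luminescence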
[15] = OVCAR4 cell viability loss – plate reader, dry powder, SA11, cytotoxicity control for PAX8 inhibitor project, dose response (AID 743150); type: functional, cell-based; conditions: OVCAR-4
[16] = COV434 cell viability loss – plate reader, dry powder, SA7, cytotoxicity control for PAX8 inhibitor project, dose response (AID 743145); type: functional, cell-based
[17] = viability loss of HPDE-C7K cells – cell-based, fluorescence, HTS, primary screen (AID 431); type: functional; conditions: Homo sapiens
[18] = toxicity toward immortalized ovarian surface epithelium – cell-based, plate reader, dry powder samples, cytotoxicity control for PAX8 inhibitor project, dose response (AID 743045); type: functional
[19] = test system: A-375; assay: proliferation inhibition in MITF-low A375 cells – cell-based, cherry-pick samples, set 2, counter-screen for MITF modulator project, dose response (AID 540335); type: functional; conditions: Homo sapiens
[20] = molecular target: Paired box protein Pax-8 (Homo sapiens, UniProt Q06710); assay: PAX8 transcriptional activity inhibition in RMG-I – RMG-I cells, luciferase, cherry-pick, dose response (AID 687027); type: functional, cell-based;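 note: luciferase reporter driven by Pax8 target thyroperoxidase promoter measured by SteadyGlo luminescence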
[21] = Luminescence Cell-Based Dose Retest to Confirm Inhibitors of Cancer Stem Cells. [Related pubchem assays (depositor defined):AID2717, AID2721]; type: functional; conditions: Homo sapiens
[22] = viability loss of HMLE_sh_eGFP cells – cell-based, luminescence, counter-screen for HMLE_sh_ECad selective toxicity project, dose response (AID 463074); type: functional, Homo sapiens;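 note: HMLE human mammary epithelial cells expressing control shRNA against eGFP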
[23] = test system: HeLa; assay: ATP-based viability loss in HeLa cells – cell-based, CellTiter-Glo luminescence, cherry-pick samples, cytotoxicity control for MITF activator project, dose response (AID 540259); type: functional; conditions: Homo sapiens
[24] = molecular target: T4, Hexokinase HKDC1 (Homo sapiens, UniProt Q2TB90); assay: analog inhibition of human HKDC1 activity – biochemical, set 2, SAR follow-up (AID 588355); type: functional
T4 sequence (Q2TB90 whole entry): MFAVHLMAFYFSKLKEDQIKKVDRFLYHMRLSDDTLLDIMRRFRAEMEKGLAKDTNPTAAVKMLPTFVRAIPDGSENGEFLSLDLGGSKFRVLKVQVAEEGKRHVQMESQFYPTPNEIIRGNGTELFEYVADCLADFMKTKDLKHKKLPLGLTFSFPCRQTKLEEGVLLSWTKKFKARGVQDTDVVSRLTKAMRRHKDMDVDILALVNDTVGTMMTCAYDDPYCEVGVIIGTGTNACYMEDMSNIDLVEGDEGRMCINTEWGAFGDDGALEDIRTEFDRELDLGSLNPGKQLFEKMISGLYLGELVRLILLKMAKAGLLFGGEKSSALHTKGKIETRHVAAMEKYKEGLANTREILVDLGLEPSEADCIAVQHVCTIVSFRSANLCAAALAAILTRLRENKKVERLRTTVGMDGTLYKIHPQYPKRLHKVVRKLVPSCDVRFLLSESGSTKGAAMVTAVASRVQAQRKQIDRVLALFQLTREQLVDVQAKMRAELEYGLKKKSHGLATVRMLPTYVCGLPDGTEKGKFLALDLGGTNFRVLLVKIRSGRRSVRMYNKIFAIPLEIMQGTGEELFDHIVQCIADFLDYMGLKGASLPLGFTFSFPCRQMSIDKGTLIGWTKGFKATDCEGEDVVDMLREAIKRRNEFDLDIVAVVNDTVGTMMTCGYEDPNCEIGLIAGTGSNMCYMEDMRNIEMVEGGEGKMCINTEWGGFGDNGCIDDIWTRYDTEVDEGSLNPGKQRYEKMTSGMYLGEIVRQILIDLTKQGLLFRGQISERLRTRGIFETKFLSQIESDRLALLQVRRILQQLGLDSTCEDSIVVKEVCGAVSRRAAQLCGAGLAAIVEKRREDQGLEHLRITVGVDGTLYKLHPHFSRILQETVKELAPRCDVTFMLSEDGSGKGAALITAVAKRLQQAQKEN

[25] = molecular target: T5, Hexokinase-1 (Homo sapiens, UniProt P19367); assay: hexokinase 1 activity inhibitors, potency – biochemical, set 2, resazurin fluorescence coupled readout, selectivity assay for HKDC1 inhibitor project, SAR follow-up (AID 588356); type: functional
T5 sequence (P19367 whole entry): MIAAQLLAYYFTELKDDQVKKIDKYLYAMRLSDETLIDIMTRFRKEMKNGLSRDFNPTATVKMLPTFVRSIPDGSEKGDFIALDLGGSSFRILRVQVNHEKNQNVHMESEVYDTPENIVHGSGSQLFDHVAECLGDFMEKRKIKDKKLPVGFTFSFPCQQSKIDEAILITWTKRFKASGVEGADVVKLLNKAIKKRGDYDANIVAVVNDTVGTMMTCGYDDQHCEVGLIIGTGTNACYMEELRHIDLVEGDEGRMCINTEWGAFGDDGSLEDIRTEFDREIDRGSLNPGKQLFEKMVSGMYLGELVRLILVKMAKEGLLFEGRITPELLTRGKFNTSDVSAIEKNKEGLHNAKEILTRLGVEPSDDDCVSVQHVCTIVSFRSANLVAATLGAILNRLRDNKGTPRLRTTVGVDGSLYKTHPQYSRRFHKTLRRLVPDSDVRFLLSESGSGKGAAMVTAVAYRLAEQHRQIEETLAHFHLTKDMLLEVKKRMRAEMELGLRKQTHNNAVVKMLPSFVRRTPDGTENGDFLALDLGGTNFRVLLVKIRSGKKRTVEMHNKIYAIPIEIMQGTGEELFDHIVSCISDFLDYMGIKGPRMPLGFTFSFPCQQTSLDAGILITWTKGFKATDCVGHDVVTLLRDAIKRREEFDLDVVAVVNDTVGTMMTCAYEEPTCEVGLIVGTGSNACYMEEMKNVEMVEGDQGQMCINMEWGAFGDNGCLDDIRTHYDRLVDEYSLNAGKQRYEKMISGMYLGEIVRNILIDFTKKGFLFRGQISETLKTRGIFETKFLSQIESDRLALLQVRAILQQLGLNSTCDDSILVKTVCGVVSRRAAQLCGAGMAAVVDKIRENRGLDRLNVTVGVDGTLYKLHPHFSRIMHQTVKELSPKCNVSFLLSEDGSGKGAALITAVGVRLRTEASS

[26] = molecular target: Cytochrome P450 2D6 (Homo sapiens, UniProt P10635);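 note: CYP2D6 member of a cytochrome P450 panel assay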
Cytochrome P450 2D6, sequence (P10635 whole entry): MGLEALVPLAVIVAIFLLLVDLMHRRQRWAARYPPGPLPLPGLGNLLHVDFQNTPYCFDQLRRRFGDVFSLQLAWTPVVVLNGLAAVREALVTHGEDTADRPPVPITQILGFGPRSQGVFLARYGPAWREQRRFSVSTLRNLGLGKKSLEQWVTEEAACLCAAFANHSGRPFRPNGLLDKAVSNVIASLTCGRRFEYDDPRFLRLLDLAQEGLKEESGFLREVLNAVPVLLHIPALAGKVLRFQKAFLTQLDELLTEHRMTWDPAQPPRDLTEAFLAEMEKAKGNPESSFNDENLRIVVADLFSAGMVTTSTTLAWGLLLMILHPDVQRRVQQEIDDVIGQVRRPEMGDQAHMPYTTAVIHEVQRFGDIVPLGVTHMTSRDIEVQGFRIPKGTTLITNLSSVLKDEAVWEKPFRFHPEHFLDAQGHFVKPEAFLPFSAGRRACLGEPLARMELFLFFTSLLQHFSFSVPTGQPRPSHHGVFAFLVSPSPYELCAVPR

Paired box protein Pax-8, sequence (Q06710 whole entry): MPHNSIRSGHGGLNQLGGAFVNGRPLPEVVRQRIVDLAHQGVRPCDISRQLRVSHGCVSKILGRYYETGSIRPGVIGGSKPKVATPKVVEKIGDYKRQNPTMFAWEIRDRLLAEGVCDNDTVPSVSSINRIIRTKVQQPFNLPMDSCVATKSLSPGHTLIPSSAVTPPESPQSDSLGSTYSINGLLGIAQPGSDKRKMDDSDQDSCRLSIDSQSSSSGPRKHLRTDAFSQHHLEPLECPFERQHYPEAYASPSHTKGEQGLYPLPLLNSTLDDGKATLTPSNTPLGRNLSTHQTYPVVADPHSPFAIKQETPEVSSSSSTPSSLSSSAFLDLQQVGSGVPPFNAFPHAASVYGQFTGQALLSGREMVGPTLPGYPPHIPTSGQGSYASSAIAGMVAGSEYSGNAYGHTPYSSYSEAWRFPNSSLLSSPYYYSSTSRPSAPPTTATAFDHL

Cn1nnnc1Sc1ncnc2scc(-c3ccc(F)cc3)c12
AC50 [1]: 26.6 µM (active)
EC50 [2]: 11.2 µM (active)
AC50 [3]: 8.1 µM (active)
AC50 [4]: 35.6 µM (active)
AC50 [5]: 93 µM (active)
AC50 [6]: 29.8 µM (active)
AC50 [7]: 44.6 µM (active)
AC50 [8]: 48 µM (active)
AC50 [9]: > 35 µM (active)
EC50 [10]: 116 nM (active)
AC50 [11]: 28.6 µM (active)
EC50 [12]: > 120 µM (not active)
EC50 [13]: 5.23 µM (active)
AC50 [14]: 36.4 µM (active)
AC50 [15]: 39.7 µM (active)
AC50 [16]: 37.1 µM (active)
EC50 [17]: 5.32 µM (active)
AC50 [18]: 68.6 µM (active)
AC50 [19]: > 35 µM (active)
AC50 [20]: 4.15 µM (active)

O=C(NC(=S)Nc1ccc2oc(=O)ccc2c1)c1ccc(-c2cccc(Cl)c2Cl)o1
AC50 [21]: 2.77 µM (active)
AC50 [22]: 39.2 µM (active)

Nc1nc(-c2cc(-c3ccccc3)no2)cs1
AC50 [23]: 144 µM (active)

COc1cc2c(cc1OC)-c1cc(NCc3ccccc3F)nc(=O)n1CC2
IC50 [24]: > 80 µM (inactive)
IC50 [25]: > 80 µM (inactive)

CCO/C(O)=C1/C(C)=NC2(O)c3ccccc3C(=O)C12O (stereo not drawn)
EC50 [2]: 18.1 µM (active)
AC50 [5]: 24 µM (active)
AC50 [26]: inconclusive
